Data as given in US20220009920A1 (GB005, Inc., priority 2020, published 2022).

Experiments:
Assay in all cases: Large panel kinase profiling
Type in all cases: biochemical
Conditions in all cases: 1 μM test article, 1 mM ATP
PRKAA2/AMPK221 = PRKAA2/AMPK221 (Homo sapiens, UniProt P54646)
Method in brief: (§1)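 With ATP fixed at 1 mM, each kinase was exposed to 1 μM compound in a PhosphoSens CSox-Sensor reaction. Sealed plates were incubated at 30° C. and read in kinetic mode.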

TAOK2 = molecular target: T1, TAOK2 (Homo sapiens, UniProt Q9UL54)
T1 construct: AssayQuant Technologies, Inc. (contract assay)
T1 sequence (Q9UL54 1-1235): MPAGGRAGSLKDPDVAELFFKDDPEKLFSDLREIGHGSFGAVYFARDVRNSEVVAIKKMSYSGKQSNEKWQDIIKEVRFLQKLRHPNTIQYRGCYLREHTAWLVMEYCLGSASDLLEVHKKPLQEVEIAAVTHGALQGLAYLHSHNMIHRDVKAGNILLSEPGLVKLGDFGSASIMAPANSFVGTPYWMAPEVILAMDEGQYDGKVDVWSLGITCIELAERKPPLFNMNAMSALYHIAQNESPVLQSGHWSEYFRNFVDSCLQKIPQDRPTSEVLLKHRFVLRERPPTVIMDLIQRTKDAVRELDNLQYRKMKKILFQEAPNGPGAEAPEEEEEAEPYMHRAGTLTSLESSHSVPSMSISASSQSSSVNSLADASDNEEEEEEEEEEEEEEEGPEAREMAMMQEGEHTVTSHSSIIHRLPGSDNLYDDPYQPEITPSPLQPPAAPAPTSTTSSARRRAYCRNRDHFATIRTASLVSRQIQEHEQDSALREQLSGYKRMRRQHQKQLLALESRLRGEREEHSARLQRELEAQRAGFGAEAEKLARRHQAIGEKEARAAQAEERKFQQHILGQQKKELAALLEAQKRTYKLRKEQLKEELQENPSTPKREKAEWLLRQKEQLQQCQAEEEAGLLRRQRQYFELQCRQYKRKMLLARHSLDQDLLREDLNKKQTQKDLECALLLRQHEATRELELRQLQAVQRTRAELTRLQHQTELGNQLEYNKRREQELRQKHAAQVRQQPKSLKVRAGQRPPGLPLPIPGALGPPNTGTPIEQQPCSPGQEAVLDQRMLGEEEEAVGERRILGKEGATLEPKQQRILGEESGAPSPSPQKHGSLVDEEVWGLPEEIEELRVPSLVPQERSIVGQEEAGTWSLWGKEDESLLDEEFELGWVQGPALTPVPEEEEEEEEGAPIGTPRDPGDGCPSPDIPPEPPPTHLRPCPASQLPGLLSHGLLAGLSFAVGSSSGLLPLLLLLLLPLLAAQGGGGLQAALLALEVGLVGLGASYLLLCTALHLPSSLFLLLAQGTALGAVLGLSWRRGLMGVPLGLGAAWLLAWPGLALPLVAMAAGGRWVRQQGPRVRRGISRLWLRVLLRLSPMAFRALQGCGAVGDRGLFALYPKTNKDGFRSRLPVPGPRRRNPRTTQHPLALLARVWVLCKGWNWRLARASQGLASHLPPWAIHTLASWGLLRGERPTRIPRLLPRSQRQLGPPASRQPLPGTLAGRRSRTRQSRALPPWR
Method in brief: as §1

MYLK3 = molecular target: T2, MYLK3 (Homo sapiens, UniProt Q32MK0)
T2 construct: AssayQuant Technologies, Inc. (assay service)
T2 sequence (Q32MK0 1-819): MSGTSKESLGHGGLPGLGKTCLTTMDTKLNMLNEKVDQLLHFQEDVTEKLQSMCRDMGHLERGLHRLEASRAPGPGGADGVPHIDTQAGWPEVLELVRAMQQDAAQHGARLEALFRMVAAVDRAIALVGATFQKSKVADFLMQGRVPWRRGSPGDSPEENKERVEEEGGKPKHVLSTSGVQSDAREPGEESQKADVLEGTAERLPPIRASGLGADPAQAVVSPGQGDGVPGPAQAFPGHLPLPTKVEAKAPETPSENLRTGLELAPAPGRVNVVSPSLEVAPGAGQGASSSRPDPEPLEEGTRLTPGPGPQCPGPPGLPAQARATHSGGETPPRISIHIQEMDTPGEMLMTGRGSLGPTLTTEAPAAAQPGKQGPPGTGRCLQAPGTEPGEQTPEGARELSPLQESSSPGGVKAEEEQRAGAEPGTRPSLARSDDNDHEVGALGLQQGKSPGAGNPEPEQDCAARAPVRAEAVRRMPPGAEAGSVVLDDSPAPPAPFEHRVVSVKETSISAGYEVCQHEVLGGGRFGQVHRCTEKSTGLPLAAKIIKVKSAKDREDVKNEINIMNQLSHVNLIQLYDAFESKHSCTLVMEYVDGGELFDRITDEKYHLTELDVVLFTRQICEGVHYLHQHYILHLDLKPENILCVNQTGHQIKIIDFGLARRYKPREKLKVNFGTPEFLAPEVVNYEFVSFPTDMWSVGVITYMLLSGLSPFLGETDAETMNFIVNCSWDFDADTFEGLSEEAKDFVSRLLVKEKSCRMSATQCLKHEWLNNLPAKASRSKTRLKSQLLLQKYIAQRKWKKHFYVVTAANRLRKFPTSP
Method in brief: as §1

RPS6KA6/RSK4 = molecular target: T3, RPS6KA6/RSK4 (Homo sapiens, UniProt Q9UK32)
T3 construct: AssayQuant Technologies, Inc. (contract assay)
Method in brief: as §1

PHKG2 = molecular target: T4, PHKG2 (Homo sapiens, UniProt P15735)
T4 sequence (P15735 1-406): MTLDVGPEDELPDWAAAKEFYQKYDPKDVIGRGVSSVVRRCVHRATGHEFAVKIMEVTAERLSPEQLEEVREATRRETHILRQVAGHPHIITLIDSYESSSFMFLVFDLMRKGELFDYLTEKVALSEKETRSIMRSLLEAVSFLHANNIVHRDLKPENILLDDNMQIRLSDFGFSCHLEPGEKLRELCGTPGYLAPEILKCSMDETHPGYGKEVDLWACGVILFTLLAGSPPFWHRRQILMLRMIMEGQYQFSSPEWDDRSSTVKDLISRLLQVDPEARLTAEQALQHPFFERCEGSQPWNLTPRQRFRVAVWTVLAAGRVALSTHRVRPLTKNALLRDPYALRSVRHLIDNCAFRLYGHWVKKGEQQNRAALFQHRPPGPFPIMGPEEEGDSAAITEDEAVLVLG
Method in brief: as §1

PRKAA2/AMPK221, sequence (P54646 whole entry, species assumed): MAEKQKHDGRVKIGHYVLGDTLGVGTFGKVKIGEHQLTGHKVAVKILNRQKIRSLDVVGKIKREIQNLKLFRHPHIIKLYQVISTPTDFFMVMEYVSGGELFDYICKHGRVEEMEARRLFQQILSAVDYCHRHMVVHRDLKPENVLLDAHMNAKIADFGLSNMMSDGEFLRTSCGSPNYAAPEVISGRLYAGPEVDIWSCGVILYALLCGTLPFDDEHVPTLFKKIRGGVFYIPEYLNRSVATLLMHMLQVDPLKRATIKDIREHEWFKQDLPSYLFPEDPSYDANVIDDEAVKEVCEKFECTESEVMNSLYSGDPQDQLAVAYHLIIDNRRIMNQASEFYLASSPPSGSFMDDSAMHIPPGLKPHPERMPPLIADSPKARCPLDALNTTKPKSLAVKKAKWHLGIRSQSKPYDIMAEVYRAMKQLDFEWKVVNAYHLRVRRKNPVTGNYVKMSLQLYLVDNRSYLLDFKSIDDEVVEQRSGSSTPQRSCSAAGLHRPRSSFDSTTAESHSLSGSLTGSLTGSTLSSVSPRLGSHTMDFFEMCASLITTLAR
PRKAA2/AMPK221, sequence (O43741 whole entry partner, species assumed): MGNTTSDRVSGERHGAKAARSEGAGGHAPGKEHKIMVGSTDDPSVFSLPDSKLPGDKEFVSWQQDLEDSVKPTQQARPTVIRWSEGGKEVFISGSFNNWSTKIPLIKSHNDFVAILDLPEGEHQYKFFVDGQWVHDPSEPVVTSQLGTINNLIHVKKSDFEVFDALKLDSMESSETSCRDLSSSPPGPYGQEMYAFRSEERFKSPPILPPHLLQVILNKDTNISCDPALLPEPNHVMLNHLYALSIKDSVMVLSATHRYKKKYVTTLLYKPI
PRKAA2/AMPK221, sequence (P54619 whole entry partner, species assumed): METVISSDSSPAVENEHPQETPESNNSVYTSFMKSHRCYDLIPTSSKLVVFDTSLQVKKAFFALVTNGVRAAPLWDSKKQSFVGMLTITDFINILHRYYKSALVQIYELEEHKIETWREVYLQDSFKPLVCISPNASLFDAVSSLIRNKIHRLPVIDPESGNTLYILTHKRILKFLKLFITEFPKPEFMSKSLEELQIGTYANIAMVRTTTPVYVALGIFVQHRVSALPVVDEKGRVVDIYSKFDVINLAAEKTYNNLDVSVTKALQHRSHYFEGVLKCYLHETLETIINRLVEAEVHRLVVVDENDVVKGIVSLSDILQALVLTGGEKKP
T3 sequence (Q9UK32 whole entry): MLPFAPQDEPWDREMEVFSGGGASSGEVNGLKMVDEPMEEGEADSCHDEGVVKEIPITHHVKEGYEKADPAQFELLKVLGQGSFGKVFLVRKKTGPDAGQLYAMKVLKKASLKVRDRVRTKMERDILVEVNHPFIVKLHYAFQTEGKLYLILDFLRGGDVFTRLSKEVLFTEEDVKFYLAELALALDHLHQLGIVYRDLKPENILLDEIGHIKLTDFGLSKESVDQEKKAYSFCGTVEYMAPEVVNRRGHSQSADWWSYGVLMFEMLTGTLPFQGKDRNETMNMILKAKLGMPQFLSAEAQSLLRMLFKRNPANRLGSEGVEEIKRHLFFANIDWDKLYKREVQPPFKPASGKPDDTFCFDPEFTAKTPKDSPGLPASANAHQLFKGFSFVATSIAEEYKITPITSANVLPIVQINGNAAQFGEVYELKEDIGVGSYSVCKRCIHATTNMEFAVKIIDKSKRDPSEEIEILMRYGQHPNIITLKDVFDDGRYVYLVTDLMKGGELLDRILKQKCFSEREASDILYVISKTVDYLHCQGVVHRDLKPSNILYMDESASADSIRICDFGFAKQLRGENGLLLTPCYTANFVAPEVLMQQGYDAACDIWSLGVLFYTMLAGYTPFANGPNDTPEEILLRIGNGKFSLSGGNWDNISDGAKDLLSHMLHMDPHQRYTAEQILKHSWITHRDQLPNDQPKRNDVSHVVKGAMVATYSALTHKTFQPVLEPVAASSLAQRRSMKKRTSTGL

Row | SMILES | inhibition at 1 µM (PRKAA2/AMPK221) | inhibition at 1 µM (TAOK2) | inhibition at 1 µM (MYLK3) | inhibition at 1 µM (RPS6KA6/RSK4) | inhibition at 1 µM (PHKG2)
1 | C=CC(=O)N1CCCC(c2c(F)cc(C(N)=O)c3[nH]c4c(c23)CCCCC4)C1 (single isomer, unassigned) [Compound 5-6] | -17.9% | -14.5% | 21.5% | -5.8% | 10.1%
2 | C=CC(=O)N1CCC[C@@H](c2c(F)cc(C(N)=O)c3[nH]c4c(c23)CCC4)C1 [Compound 10-2, (S)-8-(1-acryloylpiperidin-3-yl)-7-fluoro-1,2,3,4-tetrahydrocyclo-penta[b]indole-5-carboxamide] | 32.1% | 11.4% | 14.9% | 0.3% | 75%
3 | C=CC(=O)N1CCC[C@@H](c2c(F)cc(C(N)=O)c3[nH]c4c(c23)CC2(CC4)CC2)C1 [Compound 6-2, (S)-5-(1-acryloylpiperidin-3-yl)-6-fluoro-1,2,4,9-tetrahydrospiro[carbazole-3,1′-cyclopropane]-8-carboxamide] | 11.7% | -24.8% | 9.9% | -14.8% | 64.5%
